Reference: article PMC11844072, “Novel 5,6-dichlorobenzimidazole derivatives as dual BRAFWT and BRAFV600E inhibitors: design, synthesis, anti-cancer activity and molecular dynamics simulations” (BMC Chemistry, 2025)

Columns and labels:
HT29 cell line = assay: Apoptosis assay (Annexin V-FITC/PI); format: cell-based, human
Experimental: As stated in the Additional file A, the populations of apoptotic and necrotic cells of HT29 cell line were detected after treatment with 10h employing Annexin V-FITC apoptosis detection kit (For further details see Additional file A). […]
HT29: Colon Cancer was obtained from Nawah Scientific Inc., (Mokatam, Cairo, Egypt). […]
Apoptosis and necrosis cell populations are determined using Annexin V-FITC apoptosis detection kit (Abcam Inc., Cambridge Science Park, Cambridge, UK) coupled with 2 fluorescent channels flowcytometry. After treatment with test compounds for 48h, cells (10^5 cells) are collected by trypsinization and washed twice with ice-cold PBS (pH 7.4). Then, cells are incubated in dark with 0.5 ml of Annexin V-FITC/PI solution for 30 min in dark at room temperature according to manufacturer protocol. After staining, cells are injected via ACEA Novocyte™ flowcytometer (ACEA Biosciences Inc., San Diego, CA, USA) and analysed for FITC and PI fluorescent signals using FL1 and FL2 signal detector, respectively (λex/em 488/530 nm for FITC and λex/em 535/617 nm for PI). For each sample, 12,000 events are acquired and positive FITC and/or PI cells are quantified by quadrant analysis and calculated using ACEA NovoExpress™ software (ACEA Biosciences Inc., San Diego, CA,

BRAFV600E = BRAFV600E (Homo sapiens, UniProt P15056, V600E); assay: BRAFV600E kinase assay kit (Kinase-Glo Max luminescence)
Experimental: The inhibitory activity against different kinases was determined using kinase kits (BRAF WT
Glo Max luminescence kinase assay kit (Promega).
The assay was carried out according to the protocol provided by the manufacturer. A stock solution of the synthesized derivatives in 100% DMSO was prepared. Subsequently, the compounds were diluted to 10% DMSO.
A master mixture was prepared according to the number of wells. For BRAF assay each well include 6 μl of 5x Kinase Buffer 1 + 1 μl of ATP (500 μM) + 10 μl of 5X Raf substrate + 8 μl of distilled water. 1x Kinase buffer 1 was prepared by mixing 600 μl of 5x Kinase Buffer 1 with 2400 μl water to give 3 mL. Kinases were thawed on ice and were diluted with 1x Kinase Buffer 1. […]
The plate was incubated at 30 °C for 45 min. Subsequently, 50 μl of Kinase-Glo Max luminescence reagent was added to each well and the plate was covered with aluminum foil and incubated at room temperature for 15 min. Finally, the luminescence was recorded using multimode microplate reader. […]
The luminescence data were analyzed as follows. The difference between luminescence intensities in the absence of kinase (Lu t) and in the presence of kinase (Lu c) was defined as 100 %
calculated as: % activity = {(Lu t - Lu)/(Lut - Luc)} ×100%. The concentration of the test compounds required to reduce the kinase activity by 50% was determined from dose-response curves and

HSF cell line = assay: Cytotoxicity on HSF normal cell line (SRB assay); format: cell-based; settings: HSF normal human skin fibroblast; mean of three ± SD
Experimental: The dichlorobenzimidazole derivative 10h was tested in Nawah scientific—Cairo—Egypt for its cytotoxic activity on HSF cell line as stated in the Additional file A [53, 54].
6. Analysis of 10h on HSF normal cell line
Human Skin Fibroblast (HSF) was obtained from Nawah Scientific Inc., (Mokatam, Cairo, Egypt). Cells were maintained in DMEM media supplemented with […] of streptomycin, 100 units/mL of penicillin and 10% of heat-inactivated fetal bovine serum in humidified, 5% (v/v) CO2atmosphere at 37 °C. Cell viability was assessed by SRB assay. Aliquots of 100 μL cell suspension (5x10^3 cells) were in 96-well plates and incubated in complete media for 24 h. Cells were treated with another aliquot of 100 μL media containing drugs at various concentrations.
After drug exposure, cells were fixed by replacing media with 150 μL of 10% TCA and incubated at 4 °C for 1 h. The TCA solution was removed, and the cells were washed 5 times with distilled water. Aliquots of 70 μL SRB solution (0.4% w/v) were added and incubated in a dark place at room temperature for 10 min. Plates were washed 3 times with 1% acetic acid and allowed to air-dry overnight. Then, 150 μL of TRIS (10 mM) was added to dissolve protein-bound SRB stain; the absorbance was measured at 540 nm using an Infinite F50 microplate reader (TECAN, Switzerland).
6.2. Dose response curve of 10h on HSF normal cell line
Figure 66. […]

[1] = HT29, at its GI50 concentration, 48h

Sequence of BRAFV600E (P15056 whole entry V600E): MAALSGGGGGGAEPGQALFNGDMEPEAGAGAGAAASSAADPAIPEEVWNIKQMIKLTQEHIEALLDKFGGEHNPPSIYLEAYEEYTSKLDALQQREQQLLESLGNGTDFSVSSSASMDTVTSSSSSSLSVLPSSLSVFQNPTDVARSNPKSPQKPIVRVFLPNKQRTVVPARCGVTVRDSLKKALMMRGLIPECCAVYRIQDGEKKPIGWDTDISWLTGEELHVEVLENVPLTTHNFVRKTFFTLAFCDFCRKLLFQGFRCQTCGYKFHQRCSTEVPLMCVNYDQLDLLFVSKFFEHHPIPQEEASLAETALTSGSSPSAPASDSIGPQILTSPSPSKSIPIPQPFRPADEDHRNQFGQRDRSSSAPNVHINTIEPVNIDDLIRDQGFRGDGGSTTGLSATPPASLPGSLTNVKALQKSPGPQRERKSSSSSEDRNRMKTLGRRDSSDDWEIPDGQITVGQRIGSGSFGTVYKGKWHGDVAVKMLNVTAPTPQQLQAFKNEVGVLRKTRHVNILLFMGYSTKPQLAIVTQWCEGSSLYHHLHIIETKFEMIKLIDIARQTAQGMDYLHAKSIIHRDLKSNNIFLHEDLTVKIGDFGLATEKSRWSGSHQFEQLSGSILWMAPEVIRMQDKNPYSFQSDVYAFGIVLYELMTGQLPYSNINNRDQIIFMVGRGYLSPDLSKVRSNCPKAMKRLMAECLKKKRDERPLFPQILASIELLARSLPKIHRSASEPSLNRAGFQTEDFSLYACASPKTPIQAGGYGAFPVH

## COC(=O)COc1ccc(C=NNC(=O)Cn2c(-c3ccc(OC)cc3)nc3cc(Cl)c(Cl)cc32)cc1 [Compound 10h, Methyl-2-(4-((2-(2-(5,6-dichloro-2-(4-methoxyphenyl)-1H-benzo[d]imidazol-1-yl)acetyl)hydrazono)methyl)phenoxy)acetate]
HT29 cell line; [1]
  % of cells in early apoptosis (Q2-4): 2.29%
  % of cells in late apoptosis (Q2-2): 17.56%
  % of necrotic cells (Q2-1): 3.44%
  % of viable cells (Q2-3): 76.71%
  total % of the cells in the apoptotic phases (Early and late): 19.85%
HT29 cell line; HT29 colon cancer cell line
  apoptosis induction: induced apoptosis
BRAFV600E
  IC50: 2760 ± 150 nM
HSF cell line
  IC50: > 100000 nM
